# Legend:
# ABCG2 = target: T1, ABCG2 (Homo sapiens, UniProt Q9UNQ0); experiment: Pheophorbide A accumulation transport assay in SW620Mito cells; type: cell-based; conditions: 10 µM compound
# T1 construct: ABCG2-overexpressing SW620C and SW620Mito; endogenous in cells; host or cells: SW620Mito (mitoxantrone-resistant variant of SW620, developed in the authors' laboratory by drug selection)
# T1 sequence (Q9UNQ0 1-655): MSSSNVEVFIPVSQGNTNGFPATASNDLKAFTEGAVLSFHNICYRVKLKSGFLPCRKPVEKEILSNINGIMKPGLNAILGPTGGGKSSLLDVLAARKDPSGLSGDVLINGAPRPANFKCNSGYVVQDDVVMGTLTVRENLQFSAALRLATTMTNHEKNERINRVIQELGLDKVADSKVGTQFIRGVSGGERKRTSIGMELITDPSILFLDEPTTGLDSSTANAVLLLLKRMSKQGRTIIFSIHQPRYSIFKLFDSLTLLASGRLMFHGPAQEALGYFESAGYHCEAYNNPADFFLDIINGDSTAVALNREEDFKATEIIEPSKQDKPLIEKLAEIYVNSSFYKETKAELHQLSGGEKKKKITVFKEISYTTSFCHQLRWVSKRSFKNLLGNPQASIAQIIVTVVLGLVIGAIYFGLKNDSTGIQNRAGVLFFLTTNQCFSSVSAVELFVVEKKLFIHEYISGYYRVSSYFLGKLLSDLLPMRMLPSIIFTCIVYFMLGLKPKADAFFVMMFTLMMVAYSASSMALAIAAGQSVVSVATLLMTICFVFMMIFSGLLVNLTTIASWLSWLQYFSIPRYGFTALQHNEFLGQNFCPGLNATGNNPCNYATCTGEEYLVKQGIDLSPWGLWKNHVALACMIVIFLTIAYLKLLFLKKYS
# Text: To confirm the hypothesis of direct interaction between putative ABC protein inhibitors and transporter molecules, we conducted a series of experiments based on fluorescent probe transport as described previously. None of the compounds affected 2′,7′-bis(2-carboxyethyl)-5-(and-6)-carboxyfluorescein (BCECF) efflux out of SW620M cells, indicating the lack of interaction between the putative inhibitors and ABCC1 (Figure A). […] As anticipated, none of the newly synthesized compounds affected dye accumulation in drug-sensitive SW620 cells (data not shown). […]
# Respective samples were supplemented with a specific fluorescent marker (100 nM calcein AM for ABCB1, 100 nM BCECF AM for ABCC1, and 1 µM pheophorbide A for A BCG2). […] For ABCB1 and ABCG2 assays (dye accumulation assays), intracellular fluorescence was measured by flow cytometry (FACSymphony A1, Becton, Dickinson and Company, New Jersey, USA) immediately after dye addition (time 0) and every 3–5 min up to approximately 30 min using a flow cytometer set at 488 nm excitation and 530/30 nm emission for the calcein/ABCB1 assay and 400 nm excitation and 655/8 nm emission for the pheophorbide A/ABCG2 assay. […] The intracellular BCECF concentration was then immediately measured at 488 nm excitation and 530/30 nm emission (time 0). […]
# [1] = Neutral red uptake viability assay, SW620C; type: cell-based, human; conditions: human, SW620C cells (cisplatin-resistant); SW620C, 72 h, n = 3; read-out: Cytotoxic activity IC50 (95% CI)
# Description: (§1) The normal lung fibroblast MRC-5 and colorectal adenocarcinoma SW620 cell lines used in this experiment were purchased from American Type Culture Collection (USA) via LGC […]
# (§2) described previously.10, 11 All cells were cultured under standard conditions (37°C, 5% CO2, 100% humidity) in high-glucose DMEM supplemented with GlutaMaxTM, HEPES (ThermoFisher Scientific, USA), and 10% fetal bovine serum (EURx, Poland). Cells were routinely tested for potential Mycoplasma contamination using the MycoProbe Mycoplasma Detection kit (R&D System, USA).
# (§3) In total, 104 cells in 100 µL of complete medium were plated per well of a 96-well plate and left overnight to allow cells to adhere to the surface. Then, the cells were exposed to a desired concentration of tested compound(s). Stock solutions were prepared in DMSO and used immediately. The final DMSO concentration was constant and nontoxic (0.1% v/v). After 70-h incubation, neutral red was added to the final concentration of 1 mM. After another 2 h, the medium was aspirated, and cells were washed twice with PBS. Dye was released using 100 µL of a solubilizer (1% acetic acid in 50% ethanol) on an orbital shaker (10 min). Absorbance was read at 540 nm using EnVision Multilabel Plate Reader (Perkin Elmer, USA). Results were expressed as % of control. The IC50 parameters were calculated using GraphPad Prism version 10 (GraphPad Software, Boston, Massachusetts USA). […]
# IC₅₀ values were determined in […]
# (§4) All experiments were performed in triplicate (n = 3).
# [2] = Neutral red uptake viability assay, SW620; type: cell-based, human; conditions: human, SW620 colon cancer cells; SW620, 72 h, n = 3; read-out: Cytotoxic activity IC50 (95% CI)
# Description: To evaluate this aspect, we investigated the viability of SW620 colon cancer cells and their multidrug-resistant variants (overexpressing ABCB1, ABCC1, and ABCG2) exposed to 1 and 10 μM 4a–e using a neutral red uptake assay (Table ). In general, compounds 4a–e exerted little or no cytotoxic effect on either SW620 or multidrug-resistant sublines even at 10 μM, with the remarkable exception of SW620C (cisplatin-selected variant of SW620) cells, which turned out to be relatively susceptible toward ferrocenyl 4a–c. […] This trend may reflect steric or electronic contributions to cellular uptake or interaction with intracellular targets. […] However, since E/Z isomeric data are currently available only for compound 4c, this hypothesis requires validation. To quantify this effect, IC50 values were determined (Table ). […]
# as §1
# as §2, with “Standards. Multidrug-resistant variants of SW620 cells were developed in our laboratory as described” for “described”
# as §3, §4
SMILES,increase of intracellular retention of pheophorbide A (ABCG2) [fold],IC50 at 72 h [1] [µM],IC50 at 72 h [2] [µM]
"O=C1N/C(=C\c2ccc(-[c-]3cccc3)cc2)C(=O)N2CCC[C@@H]12.[Fe+2].c1cc[cH-]c1 [(S,Z)-4d]",≤ 2.9,–,–
"O=C1N/C(=C\c2ccccc2-[c-]2cccc2)C(=O)N2CCC[C@@H]12.[Fe+2].c1cc[cH-]c1 [(S,Z)-4b]",≤ 2.9,–,–
"O=C1N/C(=C\c2ccccc2)C(=O)N2CCC[C@@H]12 [(S,Z)-4e]",–,> 100,> 100
"O=C1N/C(=C/c2ccccc2)C(=O)N2CCC[C@@H]12 [(S,E)-4e]",–,> 100,> 100

# — PMC12257394, “Design, Synthesis, and Biological Evaluation of Ferrocenyl–Cyclo-(Gly‑L‑Pro) Hybrids Sensitizing Multidrug-Resistant Cancer Cells to Anticancer Agents” (ACS Medicinal Chemistry Letters, 2025)
